Laboratory results as given in patent publication US6605589B1, “Cathepsin inhibitors in cancer treatment” (Parker Hughes Institute, priority 2000, dated 2003).

Tests used:
Assay type in all cases: cell-based, human
[1] = test system: K-562 (CML); assay: In vitro clonogenic assay; conditions: for %, inhibition / Mean no, of colonies: 24 hours
Description: (§1) In vitro clonogenic assays were carried out to determine the cytotoxic activity of the cathepsin inhibitor I (CATI-1) (Z-Phe-Gly-NHO-Bz) against cancer cells. The cancer cell lines used in the assay were U373 (glioblastoma), BT-20 (breast cancer), SQ20B (squamous cell carcinoma), RS4;11 (pro-B ALL), ALL-1 (pre-pre-B ALL), KM-3, MOLT-3 (T-ALL), JURKAT (T-ALL), K-562 (CML), HL-60 (AML), DAUDI (NHL), RAMOS (NHL) and RAJI (NHL). Each cell line was treated under several concentrations of CATI-1 for 24 hours, washed with serum free medium and resuspended in clonogenic medium having 10% fetal bovine serum and 0.9% methylcellulose. Resuspended cells were plated in duplicate 35-mm Petri dishes at 10,000 to 20,000 cells per dish and cultured at 37° C. in a humidified 5% CO2 atmosphere for 5 to 7 days.
(§2) Images of colonies in each dish were taken by a digital camera (Princeton Instruments, Inc.) linked to a microscope (Nikon Diaphot 200). Colony numbers were determined using an inverted phase microscope and percent inhibition of colony formation determined using the formula:
(§3) % inhibition=(1−(colony number in test sample/colony number in control sample))×100.

[2] = test system: U373 (brain tumor); assay: In vitro clonogenic assay; conditions: 24 hours
Description: as §1, §2, §3

[3] = test system: SQ20B (neck cancer); assay: In vitro clonogenic assay; conditions: 24 hours
Description: as §1, §2, §3

[4] = test system: MOLT-3 (T-ALL); assay: In vitro clonogenic assay; conditions: for %, inhibition / Mean no, of colonies: 24 hours
Description: as §1, §2, §3

[5] = test system: JURKAT (T-ALL); assay: In vitro clonogenic assay; conditions: for %, inhibition / Mean no, of colonies: 24 hours
Description: as §1, §2, §3

[6] = test system: DAUDI (NHL); assay: In vitro clonogenic assay; conditions: CATI-1 10 uM, 24 hours
Description: as §1, §2, §3

[7] = test system: all tested cell lines, solid and blood cell; assay: In vitro clonogenic assay, all tested cell lines; conditions: JURKAT, KM3, DAUDI, RAJI (BAX deficient)
Description: as §1, §2
% inhibition=(1−(colony number in test sample/colony number in control sample))×100. […]

[8] = test system: SQ20B cells; assay: TUNEL assay (DNA cleavage); conditions: 50 μM and 100 μM CATI-1, FIG. 3
Description: (§4) DNA cleavage as an indicator of apoptosis was determined using the in situ terminal deoxynucleotidyl transferase (TdT)-mediated dUTP nick-end-labeling method (TUNEL assay) of Boehringer Mannheim (Cell Death Detection Kit) as described in Zhu et al. (1999) Clin. Can. Res., 5:355-360. Briefly, CATI-1 treated cells and control cells were harvested and resuspended in phosphate-buffered saline (PBS) at a density of 5×10^6 cells/ml. Fifty μl of each cell suspension was placed into a PAP Pen (Zymed Laboratories Inc., South San Francisco, Calif.)-circled area on Superfrost/Plus slide (Fisher Scientific, Pittsburgh, Pa.) that was coated for cell adhesion. Cells were allowed to adhere to the slide for 10 minutes, washed with PBS and fixed with a 4% paraformadehyde in PBS solution for 20 minutes. After washing the slides twice with PBS, the cells were permeabilized by treatment with 100 μl of 20 mM SDS in PBS for 10 minutes. […] However, non-apoptotic cells incorporate only insignificant amounts of FITC-labeled dUTP due to the lack of exposed 3′-hydroxyl ends in intact DNA and consequently have much less green fluorescence than apoptotic cells. DNA bound PI emits strong red nuclear fluorescence from all the cells.

[9] = test system: BT-20 cells; assay: TUNEL assay (DNA cleavage); conditions: 50 μM and 100 μM CATI-1, FIG. 3
Description: as §4

[10] = test system: all tested cancer cell lines; assay: Cytometric apoptosis detection assays, FIG. 2; conditions: FIG. 2 (SQ-20B, HeLa, PC-3, BT-20)
Description: The percentages indicate the fraction of cells at an early stage of apoptosis (lower right quadrant), as measured by single MC540 fluorescence, and the fraction of cells at an advanced stage of apoptosis (upper right quadrant).
Quantitative flow cytometric apoptosis detection assays were performed on BT-20 (breast cancer), PC-3 (prostate cancer), U373 (glioblastoma), SQ20B (squamous cell carcinoma), HeLa (cervix cancer), and DU145 (prostate cancer). Just prior to the assay, one mg/ml stock solutions of MC540 (Sigma, St. Louis, Mo.) and PI (Sigma, St. Louis, Mo.) were filtered through a 0.22 μm filter and stored at 4° C. in the dark. CATI-1 treated cell lines was harvested, and 1×10^6 cells suspended and stained with 5 μg/ml MC540 and 10 μg/ml propidium iodide (PI) (Uckun et al. (1996) Science, 273: 1096-1100) at 4° C. in the dark for 24 hours. Stained cells were analyzed with a FACStar Plus flow cytometer (Becton Dickinson, San Jose, Calif.) using the 488-nm excitation from an argon laser. […] In each experiment approximately 10,000 cells were analyzed by FACS and the percentage of cells at early (MC540 fluorescence only) and advanced (dual MC540 plus PI fluorescence) stages of apoptosis obtained.

[11] = test system: K562 cells; assay: Flow cytometric apoptosis detection in p53 deficient cells; conditions: K-562, p53 deficient
Description: (§5) Quantitative flow cytometric apoptosis detection assays were performed on BT-20 (breast cancer), PC-3 (prostate cancer), U373 (glioblastoma), SQ20B (squamous cell carcinoma), HeLa (cervix cancer), and DU145 (prostate cancer). Just prior to the assay, one mg/ml stock solutions of MC540 (Sigma, St. Louis, Mo.) and PI (Sigma, St. Louis, Mo.) were filtered through a 0.22 μm filter and stored at 4° C. in the dark. CATI-1 treated cell lines was harvested, and 1×10^6 cells suspended and stained with 5 μg/ml MC540 and 10 μg/ml propidium iodide (PI) (Uckun et al. (1996) Science, 273: 1096-1100) at 4° C. in the dark for 24 hours. Stained cells were analyzed with a FACStar Plus flow cytometer (Becton Dickinson, San Jose, Calif.) using the 488-nm excitation from an argon laser. MC540 and PI emissions were split with a 600-nm short pass diachronic mirror; a 575-nm band pass filter was placed in front of one photomultiplier tube to measure MC540 emission, and 635-nm band pass filter was used for PI emission. In each experiment approximately 10,000 cells were analyzed by FACS and the percentage of cells at early (MC540 fluorescence only) and advanced (dual MC540 plus PI fluorescence) stages of apoptosis obtained.
(§6) Effects of CATI-1 were investigated on a lung squamous carcinoma cell line, NCI-H520 cells, and a chronic myeloid leukemia cell line, K562 cells.

[12] = test system: NCI-H520 cells; assay: as above
Description: as §5, §6

[13] = test system: DU145 (prostate cancer); assay: Quantitative flow cytometric apoptosis detection assay (MC540/PI); conditions: 0 to 100 μM, FIGS. 1-3
Description: as §5

[14] = test system: U373 (glioblastoma); assay: as above; conditions: 0 to 100 μM, FIGS. 1-3
Description: as §5

[15] = test system: HeLa (cervix cancer); assay: as above; conditions: 0 to 100 μM, FIGS. 1-3
Description: as §5

[16] = test system: BT-20 (breast cancer); assay: as above; conditions: 0 to 100 μM, FIGS. 1-3
Description: as §5

[17] = test system: SQ20B (squamous cell carcinoma); assay: as above; conditions: 0 to 100 μM, FIGS. 1-3
Description: as §5

[18] = test system: PC-3 (prostate cancer); assay: as above; conditions: 0 to 100 μM, FIGS. 1-3
Description: as §5

[19] = read-out: IC50 (colony formation)

Structure (SMILES): O=C(CNC(=O)[C@H](Cc1ccccc1)NC(=O)OCc1ccccc1)NOC(=O)c1ccccc1 [CATI-1, Z-Phe-Gly-NHO-Bz]
- %, inhibition ([1]; CATI-1 20 uM): 76.9%
- Mean no, of colonies ([1]; CATI-1 20 uM): 1086 (1196, 976)
- %, inhibition ([1]; CATI-1 35 uM): 99.8%
- Mean no, of colonies ([1]; CATI-1 35 uM): 10 (12, 8)
- IC50 [1, 19]: 15.4 µM
- %, inhibition ([2]; CATI-1 30 uM): 97%
- Mean no, of colonies ([2]; CATI-1 30 uM): 76 (84, 67)
- %, inhibition ([2]; CATI-1 50 uM): 100%
- Mean no, of colonies ([2]; CATI-1 50 uM): 0
- %, inhibition ([3]; CATI-1 50 uM): 40%
- Mean no, of colonies ([3]; CATI-1 50 uM): 1838 (1732, 1944)
- %, inhibition ([3]; CATI-1 100 uM): 90%
- Mean no, of colonies ([3]; CATI-1 100 uM): 306 (280, 332)
- %, inhibition ([4]; CATI-1 10 uM): 90.8%
- Mean no, of colonies ([4]; CATI-1 10 uM): 194 (124, 264)
- %, inhibition ([4]; CATI-1 20 uM): 99.1%
- Mean no, of colonies ([4]; CATI-1 20 uM): 18 (16, 20)
- %, inhibition ([4]; CATI-1 35 uM): 100%
- Mean no, of colonies ([4]; CATI-1 35 uM): 0 (0, 0)
- IC50 [4, 19]: 5.5 µM
- %, inhibition ([5]; CATI-1 10 uM): 10.0%
- Mean no, of colonies ([5]; CATI-1 10 uM): 5110 (5260, 4960)
- %, inhibition ([5]; CATI-1 20 uM): 98.9%
- Mean no, of colonies ([5]; CATI-1 20 uM): 64 (40, 88)
- %, inhibition ([5]; CATI-1 35 uM): 100%
- Mean no, of colonies ([5]; CATI-1 35 uM): 0 (0, 0)
- IC50 [5, 19]: 14.5 µM
- %, inhibition [6]: 100%
- Mean no, of colonies [6]: 0 (0, 0)
- susceptibility of BAX deficient cell lines to CATI-1 [7]: highly susceptible
- DNA fragmentation (TUNEL) [8]: nuclear green fluorescence consistent with DNA fragmentation
- DNA fragmentation (TUNEL) [9]: nuclear green fluorescence consistent with DNA fragmentation
- induction of apoptosis [10]: induced apoptosis
- EC50 [11]: ~20 µM
- EC50 [12]: 55 µM
- induction of apoptosis [13]: induces apoptosis
- induction of apoptosis [14]: induces apoptosis
- induction of apoptosis [15]: induces apoptosis
- induction of apoptosis [16]: induces apoptosis
- induction of apoptosis [17]: induces apoptosis
- induction of apoptosis [18]: induces apoptosis
